# Experimental data from ChEMBL document CHEMBL1201862, “PubChem BioAssay data set” (2004).
#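 Following 48 hours of exposure in 96-well plates, responses at five concentrations were used to interpolate endpoints linearly. The concentration for 50% growth inhibition is given as GI50.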 Activity calls are given as the source filed them. No stated cut-off is given here; in the data, active = GI50 up to about 1.1 µM and inactive = higher.
# Experiments:
# Test in all cases: growth of human tumour cells (NCI), 48 h
# EKVX = test system: EKVX
# SK-MEL-5 = test system: SK-MEL-5
# OVCAR-5 = test system: OVCAR-5
# MDA-MB-435 = test system: MDA-MB-435
# PC-3 = test system: PC-3
# HL-60 = test system: HL-60
# K562 = test system: K562
# A549 = test system: A549
# MOLT-4 = test system: MOLT-4
# SR = test system: SR
# U-251 = test system: U-251
# SK-MEL-2 = test system: SK-MEL-2
# NCI-H460 = test system: NCI-H460
# M14 = test system: M14
# DU-145 = test system: DU-145
# UACC-257 = test system: UACC-257
# HT-29 = test system: HT-29
# LOX IMVI = test system: LOX IMVI
# BT-549 = test system: BT-549
# TK-10 = test system: TK-10
# HCT-15 = test system: HCT-15
# MCF7 = test system: MCF7
# NCI-H226 = test system: NCI-H226
# Malme-3M = test system: Malme-3M
# UO-31 = test system: UO-31
# SK-OV-3 = test system: SK-OV-3
# HOP-62 = test system: HOP-62
# UACC-62 = test system: UACC-62
# MDA-MB-231 = test system: MDA-MB-231
# ACHN = test system: ACHN
# SK-MEL-28 = test system: SK-MEL-28
# RPMI-8226 = test system: RPMI-8226
# Hs-578T = test system: Hs-578T
# SNB-75 = test system: SNB-75
# CCRF-CEM = test system: CCRF-CEM
# HOP-92 = test system: HOP-92
# HCC 2998 = test system: HCC 2998
# NCI-H522 = test system: NCI-H522
# A498 = test system: A498
# IGROV-1 = test system: IGROV-1
# MDA-N = test system: MDA-N
# RXF 393 = test system: RXF 393
# KM12 = test system: KM12
# SW-620 = test system: SW-620
# HCT-116 = test system: HCT-116
# OVCAR-3 = test system: OVCAR-3
# SNB-19 = test system: SNB-19
# SN12C = test system: SN12C
# SF-268 = test system: SF-268
# NCI-H23 = test system: NCI-H23
# SF-295 = test system: SF-295
# T47D = test system: T47D
# COLO 205 = test system: COLO 205
# CAKI-1 = test system: CAKI-1
# SF-539 = test system: SF-539
compound,measurement,setting,value
CC1C(NNC(N)=O)Oc2cc3c(cc2C1c1ccccc1O)OCO3 (stereo not given),GI50,EKVX,66.8 µM (inactive)
same,GI50,SK-MEL-5,27.4 µM (inactive)
same,GI50,OVCAR-5,> 100 µM (inactive)
same,GI50,MDA-MB-435,20.5 µM (inactive)
same,GI50,PC-3,24.5 µM (inactive)
same,GI50,HL-60,14.9 µM (inactive)
same,GI50,K562,22.2 µM (inactive)
same,GI50,A549,31.8 µM (inactive)
same,GI50,MOLT-4,30 µM (inactive)
same,GI50,SR,15 µM (inactive)
same,GI50,U-251,38.7 µM (inactive)
same,GI50,SK-MEL-2,35.6 µM (inactive)
same,GI50,NCI-H460,38.8 µM (inactive)
same,GI50,M14,39.3 µM (inactive)
same,GI50,DU-145,49.7 µM (inactive)
same,GI50,UACC-257,35.7 µM (inactive)
same,GI50,HT-29,34 µM (inactive)
same,GI50,LOX IMVI,46.7 µM (inactive)
same,GI50,BT-549,52.6 µM (inactive)
same,GI50,TK-10,46 µM (inactive)
same,GI50,HCT-15,33.6 µM
same,GI50,MCF7,36.8 µM (inactive)
same,GI50,NCI-H226,34.6 µM (inactive)
same,GI50,Malme-3M,28.6 µM (inactive)
same,GI50,UO-31,52.5 µM (inactive)
same,GI50,SK-OV-3,41.4 µM (inactive)
same,GI50,HOP-62,31.3 µM (inactive)
same,GI50,UACC-62,30.4 µM (inactive)
same,GI50,MDA-MB-231,55.7 µM (inactive)
same,GI50,ACHN,39.5 µM (inactive)
same,GI50,SK-MEL-28,31 µM (inactive)
same,GI50,RPMI-8226,21.5 µM (inactive)
same,GI50,Hs-578T,25.3 µM (inactive)
same,GI50,SNB-75,27.9 µM (inactive)
same,GI50,CCRF-CEM,15.6 µM (inactive)
same,GI50,HOP-92,16.5 µM (inactive)
same,GI50,HCC 2998,84.3 µM (inactive)
same,GI50,NCI-H522,14.8 µM (inactive)
same,GI50,A498,25.9 µM (inactive)
same,GI50,IGROV-1,26.3 µM (inactive)
same,GI50,MDA-N,22.3 µM (inactive)
same,GI50,RXF 393,23.8 µM (inactive)
same,GI50,KM12,31.2 µM (inactive)
same,GI50,SW-620,16.6 µM (inactive)
same,GI50,HCT-116,26.2 µM (inactive)
same,GI50,OVCAR-3,33.1 µM (inactive)
same,GI50,SNB-19,91 µM (inactive)
same,GI50,SN12C,48.3 µM (inactive)
same,GI50,SF-268,39.6 µM (inactive)
same,GI50,NCI-H23,89.9 µM (inactive)
same,GI50,SF-295,27 µM (inactive)
same,GI50,T47D,38.6 µM (inactive)
same,GI50,COLO 205,> 10 µM (inactive)
same,GI50,CAKI-1,29.5 µM (inactive)
same,GI50,SF-539,24.2 µM (inactive)
